We go through 13 compounds from ChEMBL document CHEMBL1201862, “PubChem BioAssay data set” (2004).

Holding throughout (assay): NCI-60 cell line screen, 48 h
Assay [1] relates to OVCAR-4.
In assay [2] the test system is UACC-62.
For assay [3], the system named is IGROV-1.
Assay [4] has as its system HCC 2998.
Assay [5] deals with OVCAR-3.
The test system of assay [6] is SW-620.
Assay [7] deals with M14.
The test system of assay [8] is EKVX.
Assay [9] deals with SF-539.
For assay [10], the system named is HT-29.
Assay [11] deals with SN12C.
Assay [12] concerns SK-MEL-5.
Assay [13] has as its system SNB-75.
Assay [14] has as its system HCT-15.
Assay [15] has as its system KM-20L2.
Assay [16] concerns COLO 205.
In assay [17] the test system is NCI-H226.
The test system of assay [18] is MDA-MB-435.
Assay [19] concerns MCF7.
Assay [20] deals with NCI/ADR-RES.

Structures are written as SMILES.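 Cultured in 96-well plates, cells were exposed to test compound for 48 hours across five concentrations. Here, GI50 denotes the concentration required for 50% inhibition of growth.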 The source made the active and inactive calls. Rule as the data show it: active = GI50 up to about 1.1 µM and inactive = higher. Some results are limits rather than exact numbers.

For the compound `CC(/C(=N\Nc1ccccc1)c1ccc(O)cc1)C1C(=O)Oc2ccccc21` (centres undefined), the GI50 in [1], in assay [2], in assay [3], in assay [4], in assay [5] and in [6] was > 100 µM (inactive) in each case. Besides, the GI50 in assay [7], in assay [8], in assay [9], in assay [10], in [11] and in assay [12] was > 100 µM (inactive) in each case. Besides, the GI50 in [13] is 55.7 µM (inactive); in assay [14], more than 100 µM; in [15], > 100 µM (inactive); in [16], > 100 µM (inactive).
In the case of `CCN(CC)C(=S)S` [DITIOCARB SODIUM], the GI50 in [2] was 0.388 µM (active); in assay [4], 33.6 µM (inactive); in [6], 0.117 µM (active); in [7], 41.7 µM (inactive); in assay [8], > 100 µM (inactive); in assay [9] it was > 60.4 µM (inactive). In addition, the GI50 is 0.216 µM (active) in assay [10]; > 70 µM (inactive) in assay [11]; 1.63 µM (inactive) in assay [12]; 0.261 µM (active) in assay [13]; more than 62.5 µM in [14]; 69 µM (inactive) in assay [15]. Also, the GI50 was 0.0713 µM (active) in assay [16] and > 100 µM (inactive) in assay [17].
Regarding `O=C(CO[N+](=O)[O-])OC/C=C/c1ccccc1`, the GI50 in [2] was > 10 µM (inactive); in assay [3], > 100 µM (inactive); in [4], > 100 µM (inactive); in [5] it was > 100 µM (inactive); in [6] it was > 100 µM (inactive); in [7], > 100 µM (inactive). In addition, the GI50 in assay [8] was > 100 µM (inactive); in assay [9] it was > 100 µM (inactive); in [10], > 100 µM (inactive); in assay [11], > 100 µM (inactive); in assay [13], > 100 µM (inactive); in [14], more than 100 µM. In addition, the GI50 in assay [15], in assay [16] and in [17] was > 100 µM (inactive) throughout.
As for `Cc1nnc(N/N=C2/C(=O)Nc3c(Cl)cc(Cl)cc32)n1N`, the GI50 in assay [1], in assay [2], in [3], in assay [4], in [5] and in [6] was > 100 µM (inactive) each time. The GI50 in [7] is > 100 µM (inactive); in assay [8], > 100 µM (inactive); in [9] it was > 100 µM (inactive); in assay [10] it was > 100 µM (inactive); in assay [11], > 100 µM (inactive); in [14] it was more than 100 µM. In addition, the GI50 in [15], in [16] and in assay [17] was > 100 µM (inactive) each time.
`CN1Cc2c(nc(-c3ccc(Br)cc3)c[n+]2[O-])N(C)C1`: the GI50 in assay [1], in [3], in assay [5], in assay [6], in assay [7] and in assay [8] was > 100 µM (inactive) each time. The GI50 in [9], in [10], in [11], in assay [12], in [13] and in [15] was > 100 µM (inactive) in each case. Also, the GI50 in [16] and in assay [17] was > 100 µM (inactive) in each case.
For the compound `CN(C)/C=N/c1nc2ncn(CCOC(=O)c3ccccc3)c2c(=O)[nH]1`, the GI50 in [1], in [2], in assay [3], in [5], in assay [6] and in assay [7] was > 100 µM (inactive) throughout. Moreover, the GI50 in assay [8], in assay [9], in assay [10], in assay [11], in assay [12] and in assay [13] was > 100 µM (inactive) throughout. Also, the GI50 in assay [14] was more than 100 µM; in [15], > 100 µM (inactive); in assay [16] it was > 100 µM (inactive); in assay [17] it was > 100 µM (inactive).
Consider `Brc1ccc(N2C[N+](c3ccc(Br)cc3)=NC(c3ccccc3)=N2)cc1`, for which the GI50 in [1] was 19.5 µM (inactive); in [2], 14.8 µM (inactive); in assay [3] it was 14.7 µM (inactive); in assay [4], 15.4 µM (inactive); in assay [6] it was 20.9 µM (inactive); in [7], 13.4 µM (inactive). The GI50 in assay [8] was 16.7 µM (inactive); in assay [9] it was 15.8 µM (inactive); in assay [10], 14.1 µM (inactive); in assay [11], 19 µM (inactive); in assay [12], 16 µM (inactive); in [13] it was 26.1 µM (inactive). The GI50 in [14] was 17.8 µM; in [15] it was 18.2 µM (inactive); in assay [16], 19.1 µM (inactive); in assay [17], 27.2 µM (inactive).
On to `COc1cccc(/C=C/c2cc(OC)c(OC)c(OC)c2)c1`, for which the GI50 was 25.4 µM (inactive) in assay [2]; 47.2 µM (inactive) in assay [3]; > 100 µM (inactive) in assay [4]; 26.8 µM (inactive) in assay [5]; 50.4 µM (inactive) in assay [6]; 23.8 µM (inactive) in assay [7]. For the same compound, the GI50 in assay [8] is 36.2 µM (inactive); in assay [9] it was 24.4 µM (inactive); in assay [10], 34.4 µM (inactive); in assay [11] it was 52.2 µM (inactive); in assay [12], 24.8 µM (inactive); in assay [13], 18.5 µM (inactive). Also, the GI50 is 53 µM in assay [14], 19.3 µM (inactive) in assay [15], 34.4 µM (inactive) in [16] and 18.4 µM (inactive) in assay [17].
`CC1C=C(CCCCCCCCCCCC[C@@H](O)[C@@H]2CC[C@@H]([C@@H]3CC[C@@H](C(O)CCCCCCCCCCCCC4=C[C@H](C)OC4=O)O3)O2)C(=O)O1` (some centres undefined): the GI50 was > 100 µM (inactive) in assay [2]; > 71.1 µM (inactive) in assay [3]; > 100 µM (inactive) in [4]; 23 µM (inactive) in assay [5]; > 57.3 µM (inactive) in assay [6]; > 100 µM (inactive) in assay [7]. Also, the GI50 was 1.44 µM (inactive) in assay [8]; 3.23 µM (inactive) in assay [9]; > 79.1 µM (inactive) in assay [10]; > 100 µM (inactive) in assay [11]; 0.0783 µM (active) in assay [12]; > 80 µM (inactive) in [13]. Besides, the GI50 in [14] was 57.5 µM; in [15], > 95.5 µM (inactive); in assay [16], 41.2 µM (inactive); in assay [17], 31 µM (inactive).
For the compound `COC(=O)C[C@H](CCSC)NC(=O)C[C@H](CCSC)NC(=O)C[C@H](CCSC)NC(=O)OC(C)(C)C`, the GI50 in [1] was 20.3 µM (inactive); in assay [2], 27.9 µM (inactive); in [3] it was 56.2 µM (inactive); in [4], > 100 µM (inactive); in assay [5], 22.5 µM (inactive); in assay [18], 39.5 µM (inactive). In addition, the GI50 in [6] was > 100 µM (inactive); in assay [7], 57.5 µM (inactive); in assay [8] it was 34.8 µM (inactive); in assay [19] it was 38.1 µM (inactive); in [20], > 100 µM (inactive); in assay [9], 17.5 µM (inactive). The GI50 in assay [10] was > 100 µM (inactive); in assay [11], 32.8 µM (inactive); in assay [12], 56.4 µM (inactive); in assay [13] it was 13.4 µM (inactive); in assay [14], more than 100 µM; in assay [16], > 100 µM (inactive). Further, the GI50 in [17] is 41.7 µM (inactive).
Take `COCC(O)Cn1ccnc1[N+](=O)[O-]` (centres undefined) [MISONIDAZOLE]: the GI50 in [4], in assay [5], in assay [6], in [7], in assay [8] and in assay [9] was > 100 µM (inactive) each time. Further, the GI50 was > 100 µM (inactive) in assay [10]; > 100 µM (inactive) in assay [11]; more than 100 µM in [14]; > 100 µM (inactive) in assay [15]; > 100 µM (inactive) in assay [16]; > 100 µM (inactive) in assay [17].
Turning to `COc1ccc(-c2nc3ccc(C)cc3o2)c(OC)c1`, the GI50 in [1] is 26.9 µM (inactive); in assay [2] it was 23.5 µM (inactive); in [3] it was 20.8 µM (inactive); in assay [4], 14.9 µM (inactive); in [5], 15.7 µM (inactive); in [18] it was 21.6 µM (inactive). Also, the GI50 in [6] is 29.3 µM (inactive); in assay [7] it was 18.2 µM (inactive); in assay [8], 19.6 µM (inactive); in assay [19] it was 30 µM (inactive); in [20], 29.4 µM (inactive); in [9], 20 µM (inactive). Also, the GI50 in [10] is 5.28 µM (inactive); in [11], 26.5 µM (inactive); in assay [12], 19.3 µM (inactive); in [13] it was 16.7 µM (inactive); in assay [14] it was 22.5 µM; in assay [16], 20.7 µM (inactive). Further, in assay [17], the GI50 was 30 µM (inactive).
Take `COC(=O)CC1C[C@H](C#N)N(C(=O)c2ccccc2)C[C@@H]1CC[N+](=O)[O-]` (some centres undefined): the GI50 in assay [1], in [2], in assay [3], in assay [4], in [5] and in assay [6] was > 100 µM (inactive) in each case. Further, the GI50 in assay [7], in assay [8], in [9], in assay [10], in [11] and in assay [12] was > 100 µM (inactive) throughout. Besides, the GI50 in assay [13] was > 100 µM (inactive); in assay [14], more than 100 µM; in assay [15], > 100 µM (inactive); in assay [16] it was > 100 µM (inactive).
